Assay results taken from PubChem BioAssay AID248 (DTP/NCI, 2004).
Where “and” joins values, the source holds several entries; their conditions need not be identical. Equal values may be shown once. Toxic doses and inconclusive results are not listed. No stated cut-off is given here; in the data, active means T/C of 150% or more; inactive means T/C below 125%.

System: L1210 leukemia ip in BDF1 mice, survival T/C
Assay: NCI In Vivo Anticancer Drug Screen. Data for tumor model L1210 Leukemia (intraperitoneal) in B6D2F1 (BDF1) mice
Conditions: higher = longer survival
Summary of the method: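 Tumor was transplanted into mice, which were then dosed with test compound or vehicle alone. Survival was recorded for each group, and the treated figure was expressed relative to the control figure.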

[1] = endpoint: mean survival time, dose: 100.0 mg/kg/injection, schedule: Q04DX003 (ip), vehicle: Klucel (hydroxypropylcellulose) (HPC)
[2] = endpoint: mean survival time, dose: 200.0 mg/kg/injection, schedule: Q04DX003 (ip), vehicle: Klucel (hydroxypropylcellulose) (HPC)
[3] = endpoint: mean survival time, dose: 400.0 mg/kg/injection, schedule: Q04DX003 (ip), vehicle: Klucel (hydroxypropylcellulose) (HPC)

Measured: T/C

Nc1ncnc2[nH]ncc12
inactive: endpoint: mean survival time, dose: 0.94 mg/kg/injection, schedule: Q01DX Z (ip), vehicle: carboxymethylcellulose (CMC) 92 % of control | endpoint: mean survival time, dose: 1.7 mg/kg/injection, schedule: Q01DX015 (ip), vehicle: carboxymethylcellulose (CMC) 98 % of control | endpoint: mean survival time, dose: 1.88 mg/kg/injection, schedule: Q01DX Z (ip), vehicle: carboxymethylcellulose (CMC) 97 % of control | endpoint: mean survival time, dose: 2.6 mg/kg/injection, schedule: Q01DX015 (ip), vehicle: carboxymethylcellulose (CMC) 96 % of control and 99 % of control | endpoint: mean survival time, dose: 3.75 mg/kg/injection, schedule: Q01DX Z (ip), vehicle: carboxymethylcellulose (CMC) 114 % of control | endpoint: mean survival time, dose: 4.0 mg/kg/injection, schedule: Q01DX015 (ip), vehicle: carboxymethylcellulose (CMC) 107 % of control and 108 % of control | endpoint: mean survival time, dose: 6.0 mg/kg/injection, schedule: Q01DX015 (ip), vehicle: carboxymethylcellulose (CMC) 111 % of control and 114 % of control | endpoint: mean survival time, dose: 7.5 mg/kg/injection, schedule: Q01DX Z (ip), vehicle: carboxymethylcellulose (CMC) 114 % of control | endpoint: mean survival time, dose: 8.0 mg/kg/injection, schedule: Q02DX010 (ip), vehicle: carboxymethylcellulose (CMC) 109 % of control | endpoint: mean survival time, dose: 9.0 mg/kg/injection, schedule: Q01DX015 (ip), vehicle: carboxymethylcellulose (CMC) 109 % of control and 120 % of control | endpoint: mean survival time, dose: 13.0 mg/kg/injection, schedule: Q02DX010 (ip), vehicle: other 115 % of control | endpoint: mean survival time, dose: 13.5 mg/kg/injection, schedule: Q01DX015 (ip), vehicle: carboxymethylcellulose (CMC) 106 % of control | endpoint: mean survival time, dose: 20.0 mg/kg/injection, schedule: Q02DX010 (ip), vehicle: other 120 % of control | endpoint: mean survival time, dose: 25.0 mg/kg/injection, schedule: Q01DX009 (ip), vehicle: saline 106 % of control | endpoint: mean survival time, dose: 30.0 mg/kg/injection, schedule: Q02DX010 (ip), vehicle: other 115 % of control | endpoint: mean survival time, dose: 45.0 mg/kg/injection, schedule: Q02DX010 (ip), vehicle: other 121 % of control | endpoint: mean survival time, dose: 67.0 mg/kg/injection, schedule: Q02DX010 (ip), vehicle: other 91 % of control | endpoint: mean survival time, dose: 80.0 mg/kg/injection, schedule: Q01DX001 (ip), vehicle: carboxymethylcellulose (CMC) 111 % of control | endpoint: mean survival time, dose: 120.0 mg/kg/injection, schedule: Q01DX001 (ip), vehicle: carboxymethylcellulose (CMC) 103 % of control | endpoint: mean survival time, dose: 182.0 mg/kg/injection, schedule: Q01DX001 (ip), vehicle: carboxymethylcellulose (CMC) 117 % of control | endpoint: median survival time, dose: 3.0 mg/kg/injection, schedule: Q01DX009 (ip), vehicle: saline 100 % of control and 105 % of control | endpoint: median survival time, dose: 6.0 mg/kg/injection, schedule: Q01DX009 (ip), vehicle: saline 100 % of control and 111 % of control | endpoint: median survival time, dose: 12.0 mg/kg/injection, schedule: Q01DX009 (ip), vehicle: saline 112 % of control | endpoint: median survival time, dose: 24.0 mg/kg/injection, schedule: Q01DX009 (ip), vehicle: saline 100 % of control and 112 % of control

Nc1ncnc2c1ccn2C1OC(CO)C(O)C1O (stereo unspecified)
inactive: endpoint: mean survival time, dose: 0.25 mg/kg/injection, schedule: Q01DX Z (ip), vehicle: carboxymethylcellulose (CMC) 101 % of control | endpoint: mean survival time, dose: 0.5 mg/kg/injection, schedule: Q01DX001 (ip), vehicle: carboxymethylcellulose (CMC) 108 % of control | endpoint: mean survival time, dose: 0.5 mg/kg/injection, schedule: Q01DX Z (ip), vehicle: carboxymethylcellulose (CMC) 104 % of control | endpoint: mean survival time, dose: 0.5 mg/kg/injection, schedule: Q02DX009 (ip), vehicle: carboxymethylcellulose (CMC) 109 % of control | endpoint: mean survival time, dose: 0.5 mg/kg/injection, schedule: Q## X003 (ip), vehicle: carboxymethylcellulose (CMC) 110 % of control | endpoint: mean survival time, dose: 0.75 mg/kg/injection, schedule: Q01DX Z (ip), vehicle: carboxymethylcellulose (CMC) 104 % of control | endpoint: mean survival time, dose: 1.0 mg/kg/injection, schedule: Q01DX001 (ip), vehicle: carboxymethylcellulose (CMC) 113 % of control | endpoint: mean survival time, dose: 1.0 mg/kg/injection, schedule: Q01DX Z (ip), vehicle: carboxymethylcellulose (CMC) 106 % of control | endpoint: mean survival time, dose: 1.0 mg/kg/injection, schedule: Q02DX009 (ip), vehicle: carboxymethylcellulose (CMC) 115 % of control | endpoint: mean survival time, dose: 1.0 mg/kg/injection, schedule: Q## X003 (ip), vehicle: carboxymethylcellulose (CMC) 111 % of control | endpoint: mean survival time, dose: 1.0 mg/kg/injection, schedule: Q## X005 (ip), vehicle: carboxymethylcellulose (CMC) 113 % of control | endpoint: mean survival time, dose: 1.2 mg/kg/injection, schedule: Q01DX001 (ip), vehicle: carboxymethylcellulose (CMC) 107 % of control | endpoint: mean survival time, dose: 1.25 mg/kg/injection, schedule: Q01DX Z (ip), vehicle: carboxymethylcellulose (CMC) 116 % of control | endpoint: mean survival time, dose: 1.9 mg/kg/injection, schedule: Q01DX001 (ip), vehicle: carboxymethylcellulose (CMC) 119 % of control | endpoint: mean survival time, dose: 2.0 mg/kg/injection, schedule: Q02DX009 (ip), vehicle: carboxymethylcellulose (CMC) 122 % of control | endpoint: mean survival time, dose: 2.0 mg/kg/injection, schedule: Q## X003 (ip), vehicle: carboxymethylcellulose (CMC) 123 % of control | endpoint: mean survival time, dose: 2.0 mg/kg/injection, schedule: Q## X005 (ip), vehicle: carboxymethylcellulose (CMC) 120 % of control | endpoint: mean survival time, dose: 2.5 mg/kg/injection, schedule: Q01DX Z (ip), vehicle: carboxymethylcellulose (CMC) 98 % of control | endpoint: mean survival time, dose: 4.0 mg/kg/injection, schedule: Q## X005 (ip), vehicle: carboxymethylcellulose (CMC) 102 % of control

CCCN1CCN(CCO)CC1C (stereo unspecified)
inactive: endpoint: mean survival time, dose: 100.0 mg/kg/injection, schedule: Q01DX001 (ip), vehicle: saline 98 % of control | endpoint: mean survival time, dose: 200.0 mg/kg/injection, schedule: Q01DX001 (ip), vehicle: saline 101 % of control | endpoint: mean survival time, dose: 400.0 mg/kg/injection, schedule: Q01DX001 (ip), vehicle: saline 98 % of control

NC(=O)NC1CC1(c1ccccc1)c1ccccc1 (stereo unspecified)
inactive: endpoint: mean survival time, dose: 42.0 mg/kg/injection, schedule: Q01DX009 (ip), vehicle: other 105 % of control | endpoint: mean survival time, dose: 72.0 mg/kg/injection, schedule: Q01DX009 (ip), vehicle: other 111 % of control | endpoint: mean survival time, dose: 120.0 mg/kg/injection, schedule: Q01DX009 (ip), vehicle: other 105 % of control | endpoint: mean survival time, dose: 200.0 mg/kg/injection, schedule: Q01DX009 (ip), vehicle: other 93 % of control

CNC(=O)NC1C(CO)OC2OC(C)(C)OC21 (stereo unspecified)
inactive: endpoint: mean survival time, dose: 100.0 mg/kg/injection, schedule: Q04DX002 (ip), vehicle: saline 100 % of control | endpoint: mean survival time, dose: 200.0 mg/kg/injection, schedule: Q04DX002 (ip), vehicle: saline 97 % of control | endpoint: mean survival time, dose: 400.0 mg/kg/injection, schedule: Q04DX002 (ip), vehicle: saline 94 % of control

Cc1cc2oc(=O)cc(N3CCOCC3)c2c(=O)o1
inactive: endpoint: mean survival time, dose: 100.0 mg/kg/injection, schedule: Q01DX009 (ip), vehicle: saline with Tween-80 117 % of control | endpoint: mean survival time, dose: 200.0 mg/kg/injection, schedule: Q01DX009 (ip), vehicle: saline with Tween-80 114 % of control

CCc1ccc(/C(C#N)=C/c2cccc3ccccc23)cc1
inactive: endpoint: mean survival time, dose: 100.0 mg/kg/injection, schedule: Q04DX002 (ip), vehicle: alcohol 97 % of control | endpoint: mean survival time, dose: 200.0 mg/kg/injection, schedule: Q04DX002 (ip), vehicle: alcohol 105 % of control | endpoint: mean survival time, dose: 400.0 mg/kg/injection, schedule: Q04DX002 (ip), vehicle: alcohol 91 % of control

Nc1ncnc2c1ncn2C1OC(CO)C(O)C1O.[Cl][Pt][Cl] (stereo unspecified)
inactive: endpoint: mean survival time, dose: 100.0 mg/kg/injection, schedule: Q01DX009 (ip), vehicle: water 97 % of control | endpoint: mean survival time, dose: 100.0 mg/kg/injection, schedule: Q04DX003 (ip), vehicle: water 94 % of control | endpoint: mean survival time, dose: 200.0 mg/kg/injection, schedule: Q01DX009 (ip), vehicle: water 103 % of control | endpoint: mean survival time, dose: 200.0 mg/kg/injection, schedule: Q04DX003 (ip), vehicle: water 97 % of control | endpoint: mean survival time, dose: 400.0 mg/kg/injection, schedule: Q01DX009 (ip), vehicle: water 100 % of control | endpoint: mean survival time, dose: 400.0 mg/kg/injection, schedule: Q04DX003 (ip), vehicle: water 94 % of control

O=[N+]([O-])c1ccc(/C=C/c2nccs2)o1
inactive: [1] 97 % of control | [2] 106 % of control | [3] 108 % of control

CC(C#N)(Nc1ccccc1)c1ccc(Br)cc1 (stereo unspecified)
inactive: [1] 95 % of control | [2] 95 % of control | [3] 95 % of control

Nc1cc(S(N)(=O)=O)ccc1SSc1ccc(S(N)(=O)=O)cc1N
inactive: endpoint: mean survival time, dose: 100.0 mg/kg/injection, schedule: Q01DX009 (ip), vehicle: saline 105 % of control | endpoint: mean survival time, dose: 100.0 mg/kg/injection, schedule: Q04DX003 (ip), vehicle: saline 96 % of control | endpoint: mean survival time, dose: 200.0 mg/kg/injection, schedule: Q01DX009 (ip), vehicle: saline 99 % of control | endpoint: mean survival time, dose: 200.0 mg/kg/injection, schedule: Q04DX003 (ip), vehicle: saline 94 % of control | endpoint: mean survival time, dose: 400.0 mg/kg/injection, schedule: Q01DX009 (ip), vehicle: saline 110 % of control | endpoint: mean survival time, dose: 400.0 mg/kg/injection, schedule: Q04DX003 (ip), vehicle: saline 89 % of control
